Measured values: EPA's ToxValDB 9.5 (doi:10.2903/j.efsa.2008.120r)
Values after ≈ are worked out from the molar mass of the structure shown.

Legend:
Typhlodromus pyri = assay: LR50; higher = less toxic; details: not reported; mortality
Mus musculus = details: acute; mortality
Colinus virginianus = details: oral; for LD50: mortality
Daphnia magna = details: chronic/long-term; duration: 21 days; reproduction
Anas platyrhynchos = details: oral; for LD50: mortality
Canidae = details: oral, Dog Other, body weight
Coturnix japonica = details: reproduction developmental
Apis mellifera = details: acute, mortality
Tagia sp. = details: acute; duration: 14 days; mortality
[1] = short-term, duration: 5 days, feed

COc1cc(OC)nc(NC(=O)NS(=O)(=O)c2ncccc2C(=O)N(C)C)n1 [Nicosulfuron]
LR50 (Typhlodromus pyri): 60 g/ha | LD50 (Mus musculus): > 5000 mg/kg-day | LD50 (Colinus virginianus; acute, duration: 5 days, diet): > 1600 mg/kg-day | NOEL (Colinus virginianus; acute): 2000 mg/kg-day | LD50 (Colinus virginianus; acute): > 2000 mg/kg-day | NOEL (Colinus virginianus; short-term, duration: 5 days, diet): 1600 mg/kg-day | LD50 (Rattus norvegicus; acute, mortality): > 5000 mg/kg-day | NOAEL (Rattus norvegicus; chronic, duration: 2 years, hematological): 199 mg/kg-day | NOAEL (Rattus norvegicus; reproduction developmental, M): 3860 mg/kg-day | NOAEL (Rattus norvegicus; reproduction developmental, mortality): 4400 mg/kg-day | NOEC (Daphnia magna): 5.2 mg/L | NOEL (Anas platyrhynchos; acute, unspecified): 2000 mg/kg-day | LD50 (Anas platyrhynchos; acute, unspecified): > 2000 mg/kg-day | NOEL (Anas platyrhynchos; [1]): 911 mg/kg-day | LD50 (Anas platyrhynchos; [1]): > 911 mg/kg-day | NOAEL (Canidae; chronic, duration: 1 years): 200 mg/kg-day | NOAEL (Canidae; short-term, duration: 28 days): 200 mg/kg-day | NOAEL (Canidae; subchronic, duration: 90 days): 200 mg/kg-day | NOEC (Coturnix japonica): 171 mg/kg-day | LD50 (Apis mellifera; dermal): 76 µg/piece | LC50 (Apis mellifera; oral, feed): > 1000 µg/piece | LC50 (Oncorhynchus mykiss; acute, duration: 96 hours, mortality): 65.7 mg/L (≈ 160 µM) | NOEC (Oncorhynchus mykiss; chronic/long-term, duration: 28 days, growth): 10 mg/L | LC50 (Tagia sp.): > 1000 mg/kg
